From US8101774B2, “Ester derivatives and medicinal use thereof” (Japan Tobacco Inc., priority 2004, dated 2012)

Assays:
[1] = molecular target: T1, Microsomal triglyceride transfer protein (MTP) from human small intestine microsome (Homo sapiens, UniProt P55157); test: Inhibition test of interliposomal triglyceride (TG) transfer activity by MTP; type: biochemical; conditions: purified MTP from human small intestine microsome, 37° C., 1.5 hours
T1 construct: Human small intestine microsome was dialyzed against 10 mM phosphate buffer; tissue Tissue Transforming Technologies, Inc; host or cells: human small intestine microsome
T1 sequence (P55157 19-894): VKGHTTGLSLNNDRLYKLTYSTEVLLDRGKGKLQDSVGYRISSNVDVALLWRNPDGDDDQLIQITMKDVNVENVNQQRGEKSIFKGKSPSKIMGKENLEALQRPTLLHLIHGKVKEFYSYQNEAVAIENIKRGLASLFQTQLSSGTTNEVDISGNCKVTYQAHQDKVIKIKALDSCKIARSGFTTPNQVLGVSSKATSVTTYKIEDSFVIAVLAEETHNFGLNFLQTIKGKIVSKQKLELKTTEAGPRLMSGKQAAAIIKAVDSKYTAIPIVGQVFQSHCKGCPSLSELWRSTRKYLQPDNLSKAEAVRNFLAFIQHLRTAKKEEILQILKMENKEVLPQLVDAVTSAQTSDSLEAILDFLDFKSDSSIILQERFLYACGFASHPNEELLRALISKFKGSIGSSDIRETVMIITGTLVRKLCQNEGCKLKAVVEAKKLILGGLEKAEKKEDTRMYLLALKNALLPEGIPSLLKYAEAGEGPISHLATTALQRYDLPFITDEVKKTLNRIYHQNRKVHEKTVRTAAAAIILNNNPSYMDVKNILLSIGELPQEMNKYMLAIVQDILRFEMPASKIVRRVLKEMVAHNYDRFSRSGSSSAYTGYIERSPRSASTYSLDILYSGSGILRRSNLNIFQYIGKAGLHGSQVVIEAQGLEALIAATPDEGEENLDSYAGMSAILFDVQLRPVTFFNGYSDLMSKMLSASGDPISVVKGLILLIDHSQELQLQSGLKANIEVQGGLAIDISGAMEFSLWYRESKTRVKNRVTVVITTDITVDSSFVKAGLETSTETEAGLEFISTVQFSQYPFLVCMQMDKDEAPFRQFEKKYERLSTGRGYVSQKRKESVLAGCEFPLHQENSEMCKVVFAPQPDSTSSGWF
T1 sequence (P07237 18-508 partner): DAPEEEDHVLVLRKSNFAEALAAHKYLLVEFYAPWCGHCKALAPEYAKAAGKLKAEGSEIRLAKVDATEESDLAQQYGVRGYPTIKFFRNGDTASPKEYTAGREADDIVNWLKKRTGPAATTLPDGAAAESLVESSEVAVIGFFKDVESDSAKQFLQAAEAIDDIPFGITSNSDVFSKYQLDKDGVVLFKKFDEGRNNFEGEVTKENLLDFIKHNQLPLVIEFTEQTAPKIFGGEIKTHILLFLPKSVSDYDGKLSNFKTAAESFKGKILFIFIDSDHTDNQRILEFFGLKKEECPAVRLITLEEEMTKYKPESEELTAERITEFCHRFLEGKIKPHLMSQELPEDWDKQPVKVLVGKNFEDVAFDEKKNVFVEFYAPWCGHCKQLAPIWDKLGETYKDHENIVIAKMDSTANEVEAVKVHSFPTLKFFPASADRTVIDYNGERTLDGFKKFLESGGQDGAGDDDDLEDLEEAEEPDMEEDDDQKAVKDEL
Procedure, shortened: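 DEAE-purified human small intestine MTP (50 μL of 20 μg/mL) incubated 1.5 hours at 37° C with ^14C-triolein donor and unlabelled acceptor SUV liposomes in pH 7.4 Tris buffer with 0.5% BSA. Donor removed on DEAE cellulose; acceptor radioactivity counted, blank-corrected against DMSO control, giving percent inhibition and IC50.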

[2] = Metabolic stability test in liver S9; type: in vitro ADME; conditions: human liver S9 2 mg protein/mL, 37° C.
Description: Human liver S9 (final concentration: 2 mg protein/mL), was suspended in 100 mM potassium phosphate buffer (pH 7.4, containing β-nicotinamide adenine dinucleotide phosphate: 1.3 mM, D-glucose-6-phosphate: 3.3 mM, magnesium chloride: 3.3 mM, glucose-6-phosphate dehydrogenase: 0.4 U/mL). The suspension was mixed with a solution of a sample dissolved in DMSO. The solution was incubated at 37° C. for 0, 10 and 60 minutes, and an acetonitrile containing formic acid (final concentration: 0.1%) was added thereto. The solutions were centrifuged, and the concentration of the sample (unchanged form) in the supernatant was determined by high performance liquid chromatography/mass spectrometry (LC/MS). Based on the data obtained, remaining rate (%) was calculated according to the following equation. Remaining rate(%)=amount of sample 0, 10, or 60 minutes after incubation/amount of sample at zero time after incubation×100

[3] = Metabolic stability test in plasma; type: in vitro ADME; conditions: 37° C.
Description: A sample dissolved in DMSO was added to plasma of human or animal species (mouse and hamster). The solutions were incubated at 37° C. for 0, 10 and 60 minutes, and acetonitrile containing formic acid (final concentration: 0.1%) was added thereto. The solutions were centrifuged, and the concentration of the sample (unchanged form) in the supernatant was determined by high performance liquid chromatography/mass spectrometry (LC/MS). Based on the data obtained, the remaining rate (%) was calculated according to the following equation. Remaining rate(%)=amount of sample 0, 10, or 60 minutes after incubation/amount of sample at zero time after incubation×100 With respect to the compounds obtained in Working Examples according to the present invention (Compounds 1-1 to 1-115, 2-1, 3-1, 3-2, and 4-1 to 4-4), the results of the remaining rate in human liver S9 and plasma are shown in Tables 28 to 32.

[4] = Stability test in buffer (pH 7.4); type: physicochemical; conditions: 100 mM potassium phosphate buffer (pH 7.4):acetonitrile 7:3, 37° C.
Description: In the tables, Buf. remaining rate was determined by stability test in buffer (pH 7.4) as described below. A sample dissolved in DMSO was mixed with a mixed solution of 100 mM potassium phosphate buffer and acetonitrile in the ratio of 7:3 (v/v). The mixture was incubated at 37° C. for 0, 10, and 60 minutes, and acetonitrile containing formic acid (final concentration: 0.1%) was added thereto. The solution was centrifuged, and the concentration of the sample (unchanged form) in the supernatant was determined by high performance liquid chromatography/mass spectrometry (LC/MS). Based on the data obtained, Buf. remaining rate (%) was calculated according to the following equation. Buf. remaining rate(%)=amount of sample 0, 10, or 60 minutes after incubation/amount of sample at zero time after incubation×100

IC50 [1] [nM]	SMILES	also measured
< 10	COC(=O)c1ccc(OC(=O)CCCc2ccc(NC(=O)c3ccccc3-c3ccc(C(F)(F)F)cc3)c(C(=O)N(C)C)c2)c(C)c1 [Compound 1-66, 4-[4-(3-dimethylcarbamoyl-4-{(4′-trifluoromethylbiphenyl-2-carbonyl)amino}phenyl)butyryloxy]-3-methylbenzoic acid methyl ester]	Remaining rate in human liver S9 (%/10 min) ([2]; 10 min): 3%; Remaining rate in human liver S9 (%/60 min) ([2]; 60 min): 0%; Remaining rate in human plasma (%/60 min) [3]: 8%; Buf. remaining rate (%/10 min) ([4]; 10 min): 101%; Buf. remaining rate (%/60 min) ([4]; 60 min): 103%
< 10	COC(=O)c1cc(OC)c(OC(=O)CCCc2ccc(NC(=O)c3ccc(C)nc3-c3ccc(C(F)(F)F)cc3)c(C(=O)N(C)C)c2)c(C(=O)OC)c1 [Compound 1-53, 4-[4-(3-dimethylcarbamoyl-4-{[6-methyl-2-(4-trifluoromethylphenyl)pyridine-3-carbonyl]amino}phenyl)butyryloxy]-5-methoxyisophthalic acid dimethyl ester]	
10 to 100	CC(C)OC(=O)c1ccc(OC(=O)CCCc2ccc(NC(=O)c3cccnc3-c3ccc(C(F)(F)F)cc3)c(C(=O)N(C)C)c2)cc1 [Compound 1-31, 4-[4-(3-dimethylcarbamoyl-4-{[2-(4-trifluoromethylphenyl)pyridine-3-carbonyl]amino}phenyl)butyryloxy]benzoic acid isopropyl ester]	
< 10	CN(C)C(=O)c1cc(CCCC(=O)Oc2ccc(C(=O)OCc3cccs3)cc2)ccc1NC(=O)c1ccccc1-c1ccc(C(F)(F)F)cc1 [Compound 1-98, 4-[4-(3-dimethylcarbamoyl-4-{(4′-trifluoromethylbiphenyl-2-carbonyl)amino}phenyl)butyryloxy]benzoic acid thiophen-2-ylmethyl ester]	
< 10	CN(C)C(=O)c1cc(CCCC(=O)Oc2ccc(C(=O)OCc3ccsc3)cc2)ccc1NC(=O)c1ccccc1-c1ccc(C(F)(F)F)cc1 [Compound 1-99, 4-[4-(3-dimethylcarbamoyl-4-{(4′-trifluoromethylbiphenyl-2-carbonyl)amino}phenyl)butyryloxy]benzoic acid thiophen-3-ylmethyl ester]	
< 10	CC(C)OC(=O)c1ccc(OC(=O)CCCc2ccc(NC(=O)c3ccccc3-c3ccc(C(F)(F)F)cc3)c(C(=O)N(C)C)c2)cc1 [Compound 1-7, 4-(4-{3-dimethylcarbamoyl-4-[(4′-trifluoromethylbiphenyl-2-carbonyl)amino]phenyl}butyryloxy)benzoic acid isopropyl ester]	
< 10	CCCC(=O)c1ccc(OC(=O)CCCc2ccc(NC(=O)c3ccccc3-c3ccc(C(F)(F)F)cc3)c(C(=O)N(C)C)c2)cc1 [Compound 1-93, 4-(3-dimethylcarbamoyl-4-{(4′-trifluoromethylbiphenyl-2-carbonyl)amino}phenyl)butyric acid 4-butyrylphenyl ester]	
< 10	COC(=O)c1cc(C)c(OC(=O)CCCc2ccc(NC(=O)c3ccccc3-c3ccc(C(F)(F)F)cc3)c(C(=O)N(C)C)c2)c(C)c1 [Compound 1-64, 4-[4-(3-dimethylcarbamoyl-4-{(4′-trifluoromethylbiphenyl-2-carbonyl)amino}phenyl)butyryloxy]-3,5-dimethylbenzoic acid methyl ester]	
< 10	CC(=O)N1CCC(OC(=O)c2ccc(OC(=O)CCCc3ccc(NC(=O)c4ccccc4-c4ccc(C(F)(F)F)cc4)c(C(=O)N(C)C)c3)cc2)CC1 [Compound 1-109, 4-[4-(3-dimethylcarbamoyl-4-{(4′-trifluoromethylbiphenyl-2-carbonyl)amino}phenyl)butyryloxy]benzoic acid 1-acetylpiperidin-4-yl ester]	
< 10	COC(=O)c1cc(C)c(OC(=O)CCCc2ccc(NC(=O)c3ccc(C)nc3-c3ccc(C(F)(F)F)cc3)c(C(=O)N(C)C)c2)c(C(=O)OC)c1 [Compound 1-110, 4-[4-(3-dimethylcarbamoyl-4-{[6-methyl-2-(4-trifluoromethylphenyl)pyridine-3-carbonyl]amino}phenyl)butyryloxy]-5-methylisophthalic acid dimethyl ester]	

Continued, compound first:

SMILES	IC50 [1] [nM]	also measured
CCOC(=O)c1cc(Cl)c(OC(=O)CCCc2ccc(NC(=O)c3ccc(C)nc3-c3ccc(C(F)(F)F)cc3)c(C(=O)N(C)C)c2)c(OC)c1 [Compound 1-48, 3-chloro-4-[4-(3-dimethylcarbamoyl-4-{[6-methyl-2-(4-trifluoromethylphenyl)pyridine-3-carbonyl]amino}phenyl)butyryloxy]-5-methoxybenzoic acid ethyl ester]	< 10	
Cc1noc(-c2ccc(OC(=O)CCCc3ccc(NC(=O)c4ccccc4-c4ccc(C(F)(F)F)cc4)c(C(=O)N(C)C)c3)cc2)n1 [Compound 1-2, 4-{3-dimethylcarbamoyl-4-[(4′-trifluoromethylbiphenyl-2-carbonyl)amino]phenyl}butyric acid 4-(3-methyl-[1,2,4]oxadiazol-5-yl)phenyl ester]	< 10	
COC(=O)c1ccc(OC(=O)C2CCN(c3ccc(NC(=O)c4ccccc4-c4ccc(C(F)(F)F)cc4)c(C(=O)N(C)C)c3)CC2)c(F)c1 [Compound 3-2, 1-{3-dimethylcarbamoyl-4-[(4′-trifluoromethylbiphenyl-2-carbonyl)amino]phenyl}piperidine-4-carboxylic acid 2-fluoro-4-methoxycarbonylphenyl ester]	10 to 100	
CN(C)C(=O)c1cc(CC(=O)Oc2ccccc2)ccc1NC(=O)c1ccccc1-c1ccc(C(F)(F)F)cc1 [Compound 1-3, {3-dimethylcarbamoyl-4-[(4′-trifluoromethylbiphenyl-2-carbonyl)amino]phenyl}acetic acid phenyl ester]	100 to 1000	
CCOC(=O)c1cc(OC)c(OC(=O)CCCc2ccc(NC(=O)c3ccc(C)nc3-c3ccc(C(F)(F)F)cc3)c(C(=O)N(C)C)c2)c(OC)c1 [Compound 1-43, 4-[4-(3-dimethylcarbamoyl-4-{[6-methyl-2-(4-trifluoromethylphenyl)pyridine-3-carbonyl]amino}phenyl)butyryloxy]-3,5-dimethoxybenzoic acid ethyl ester]	< 10	
CC(=O)NCCOC(=O)c1ccc(OC(=O)CCCc2ccc(NC(=O)c3ccccc3-c3ccc(C(F)(F)F)cc3)c(C(=O)N(C)C)c2)cc1 [Compound 1-77, 4-[4-(3-dimethylcarbamoyl-4-{(4′-trifluoromethylbiphenyl-2-carbonyl)amino}phenyl)butyryloxy]benzoic acid 2-acetylaminoethyl ester]	< 10	
COC(=O)COC(=O)c1ccc(OC(=O)CCCc2ccc(NC(=O)c3ccccc3-c3ccc(C(F)(F)F)cc3)c(C(=O)N(C)C)c2)cc1 [Compound 1-86, 4-[4-(3-dimethylcarbamoyl-4-{(4′-trifluoromethylbiphenyl-2-carbonyl)amino}phenyl)butyryloxy]benzoic acid methoxycarbonylmethyl ester]	< 10	
CN(C)C(=O)c1cc(CCCC(=O)Oc2ccc(-c3nnn(CC(=O)OCc4ccccc4)n3)cc2)ccc1NC(=O)c1ccccc1-c1ccc(C(F)(F)F)cc1 [Compound 1-104, 4-(3-dimethylcarbamoyl-4-{(4′-trifluoromethylbiphenyl-2-carbonyl)amino}phenyl)butyric acid 4-(2-benzyloxycarbonylmethyl-2H-tetrazol-5-yl)phenyl ester]	< 10	
CCOC(=O)c1cc(C)c(OC(=O)CCCc2ccc(NC(=O)c3ccc(C)nc3-c3ccc(C(F)(F)F)cc3)c(C(=O)N(C)C)c2)c(Cl)c1 [Compound 1-112, 3-chloro-4-[4-(3-dimethylcarbamoyl-4-{[6-methyl-2-(4-trifluoromethylphenyl)pyridine-3-carbonyl]amino}phenyl)butyryloxy]-5-methylbenzoic acid ethyl ester]	< 10	
COC(=O)c1ccc(OC(=O)CCCc2ccc(NC(=O)c3ccccc3-c3ccc(C(F)(F)F)cc3)c(C(=O)N(C)C)c2)cc1 [Compound 1-5]	< 10	
